# Test results taken from patent publication EP0394982A2, “Anthracycline derivatives with cytostatic activity” (BEHRINGWERKE Aktiengesellschaft, priority 1989, dated 1990).
# Read-outs that look alike come from different tables or passages of the source.
# Tested on: L1210 Leukämiezellen
# Test: Colony formation of L1210 leukemia cells in soft agar (cytotoxicity in vitro)
# Format: cell-based, Maus
# Conditions: Mus musculus, colonies > 60 µm counted
# Text: Die zytostatische Wirksamkeit der erfindungsgemäßen Verbindungen wurde anhand von L1210 Leukämiezellen der Maus getestet. Hierzu wurde die Koloniebildung von L1210 Leukämiezellen in Agarplatten herangezogen. Diese Methode dient zum Nachweis des Einflusses der Testsubstanzen auf das Wachstumsverhalten der Zellen über 1 Stunde oder über mehrere Generationen. Bei einer Zellzykluszeit von 10-12 Stunden werden dabei in der Testzeit von 7 Tagen etwa 14 aufeinanderfolgende Generationen beobachtet. Die erfindungsgemäßen zytostatisch wirksamen Substanzen bewirken in diesem Test eine Reduktion der zu beobachtenden Koloniezahl gegenüber einer unbehandelten Kontrollprobe.
# Verfahrensweise zur Ermittlung der Koloniebildung von L1210 Leukämiezellen in Soft-Agar
# 500 Leukämiezellen pro Platte wurden mit unterschiedlichen Konzentrationen der Testsubstanz 1 Stunde bei 37°C inkubiert. Anschließend wurden die Zellen zweimal mit McCoy5A-Medium gewaschen und schließlich in Petrischalen nach Zugabe von 0,3 % Agar ausgegossen. Kontrollen wurden lediglich mit frischem Medium inkubiert. Anstelle der einstündigen Inkubation wurden in manchen Fällen unterschiedliche Konzentrationen und Testsubstanzen der oberen Agarschicht zugemischt, um so eine kontinuierliche Exposition der Zellen über die gesamte Inkubationszeit zu erreichen. Nach Erstarren des Agars wurden die Platten im Brutschrank 7 Tage bei 37°C inkubiert (5 Vol.-% CO₂, 95 % relative Luftfeuchtigkeit). Anschließend wurde die Zahl der entstandenen Kolonien mit einem Durchmesser von mehr als 60 µm gezählt. Die Ergebnisse wurden angegeben als Koloniezahl in behandelten Agarplatten in Prozent der unbehandelten Kontrolle. Aus der so erhaltenen Dosiswirkungskurve wurde die IC₅₀ als Maß für die Wirksamkeit der Substanz ermittelt. Die Ergebnisse für die hier beschriebenen Verbindungen im Vergleich zu Adriamycin sind in Tabelle 1 zusammengefaßt.
# [1] = L1210, 168 h, continuous exposure (substance mixed into upper agar layer), 7 days at 37°C, read-out: Dauerinkubation IC50
# [2] = L1210, 1 h incubation at 37°C, cells washed, then 7 days in agar, read-out: 1h-Inkubation IC50
Structure (SMILES),IC50 [1] [µg/mL],IC50 [2] [µg/mL]
"CC[C@@]1(O)C[C@H](O[C@H]2C[C@H](N(C)CC(=O)NN)[C@H](O)[C@H](C)O2)c2c(O)c3c(c(O)c2[C@H]1O)C(=O)c1cccc(O)c1C3=O [Beispiel 1, 7-0-(3′-N-Hydrazinocarbonylmethyl-3′-N-methyl-α-L-daunosaminyl)-β-rhodomycinon]",0.32,0.21
"CC[C@@]1(O)C[C@H](O[C@H]2C[C@H](N(C)CC(=O)NCCN)[C@H](O)[C@H](C)O2)c2c(O)c3c(c(O)c2[C@H]1O)C(=O)c1cccc(O)c1C3=O [Beispiel 2, 7-0-(3′-N-Ethylendiaminocarbonylmethyl-3′-N-methyl-α-L-daunosaminyl)-β-rhodomycinon]",0.35,1
CC[C@@]1(O)C[C@H](O[C@H]2C[C@H](N(C)CC(=O)NCCN(C)C)[C@H](O)[C@H](C)O2)c2c(O)c3c(c(O)c2[C@H]1O)C(=O)c1cccc(O)c1C3=O [Beispiel 3],0.12,0.26
CC[C@@]1(O)C[C@H](O[C@H]2C[C@H](N(C)CC(=O)NCCCCN)[C@H](O)[C@H](C)O2)c2c(O)c3c(c(O)c2[C@H]1O)C(=O)c1cccc(O)c1C3=O [Beispiel 4],0.35,1.3
"CC[C@@]1(O)C[C@H](O[C@H]2C[C@H](N(C)CC(=O)NCCc3c[nH]cn3)[C@H](O)[C@H](C)O2)c2c(O)c3c(c(O)c2[C@H]1O)C(=O)c1cccc(O)c1C3=O [Beispiel 5, 7-O-(3′-N-Histaminocarbonylmethyl-3′-N-methyl-α-L-daunosaminyl)-β-rhodomycinon]",0.31,1
"CC[C@@]1(O)C[C@H](O[C@H]2C[C@H](N(C)CC(=O)NCCc3ccc(O)cc3)[C@H](O)[C@H](C)O2)c2c(O)c3c(c(O)c2[C@H]1O)C(=O)c1cccc(O)c1C3=O [Beispiel 6, 7-O-(3′-N-Methyl-3′-N-tyraminocarbonylmethyl-α-L-daunosaminyl)-β-rhodomycinon]",0.41,1.3
"CC[C@@]1(O)C[C@H](O[C@H]2C[C@H](N(C)CC(=O)NCCc3c[nH]c4ccccc34)[C@H](O)[C@H](C)O2)c2c(O)c3c(c(O)c2[C@H]1O)C(=O)c1cccc(O)c1C3=O [Beispiel 7, 7-O-(3′-N-Methyl-3′-N-tryptaminocarbonylmethyl-α-L-daunosaminyl)-β-rhodomycinon]",0.36,1.2
